Laboratory results reported in patent publication US11111227B2, “Rotigotine behenate, and manufacturing method and application thereof” (Shandong Luye Pharmaceutical Co., Ltd., priority 2016, dated 2021).

Experiments:
[1] = Test Example 3: pharmacokinetic performance of each drug injection in rats (intramuscular); assay type: in vivo
Protocol: Test Example 3: Pharmacokinetic Performance of Each Drug Injection in Rats
Male SD rats (provided by Shandong Luye Pharma Group Ltd.), weighing 190-280 g, 12 rats, 3 rats in each group.
Vehicle containing 1% of HPMC was prepared, and rotigotine arachidate, rotigotine behenate and rotigotine lignocerate were added to the vehicle respectively to provide 10 mg/ml of suspensions (calculated as rotigotine).
The experimental animals were randomly divided into rotigotine arachidate group (A), rotigotine behenate group (B) and rotigotine lignocerate group (C), with 3 rats in each group, The rats in Groups A, B and C were intramuscularly injected with the corresponding drug (2 ml/kg).
(§1) Blood samples were taken from the eyelids of the rats in Groups A, B, and C before the administration (0 h) and at 0.25 h, 1 h, 6 h, 1 d, 2 d, 3 d, 5 d, 7 d, 9 d, 11 d, 14 d, 16 d, 18 d, 21 d, 25 d, 28 d, 30 d, 35 d, 39 d, 42 d after administration. Each blood sample was placed into heparinized EP tube, and was immediately centrifuged (3000 rpm) for 10 min. The plasma was separated and stored at −35° C. for testing.

[2] = Test Example 1: pharmacokinetic performance of rotigotine caprylate injection in rats (intramuscular); assay type: in vivo
Protocol: Test Example 1: Pharmacokinetic Performance of Rotigotine Caprylate Injection in Rats
Rotigotine caprylate: prepared according to Comparative Example 1
Male SD rats (provided by Shandong Luye Pharma Group Ltd.), weighing 190-280 g, 3 rats.
Vehicle containing 1% of HPMC was prepared, and rotigotine caprylate was added to the vehicle to provide a 10 mg/ml of suspension (calculated as rotigotine). Three rats were intramuscularly injected with 2 mL/kg of the drug. Blood samples were taken from the eyelids of the rats before the administration (0 h) and at 0.25 h, 1 h, 6 h, 1 d, 2 d, 3 d, 5 d, 7 d, 9 d, 11 d, 14 d, 16 d, 18 d, 21 d, 24 d, 28 d after administration. Each blood sample was placed into heparinized EP tube, and was immediately centrifuged (3000 rpm) for 10 min. The plasma was separated and stored at −35° C. for testing.

[3] = Test Example 2: pharmacokinetic performance of each drug injection in rats (intramuscular, groups A-C); assay type: in vivo
Protocol: Test Example 2: Pharmacokinetic Performance of Each Drug Injection in Rats
(§2) Experimental animals: Male SD rats (provided by Shandong Luye Pharma Group Ltd.), weighing 190-280 g, 12 rats in total, 3 rats in each group.
(§3) Vehicle containing 1% of HPMC was prepared, and rotigotine oleate, rotigotine palmitate and rotigotine stearate were added to the vehicle respectively to provide 10 mg/ml of suspensions (calculated as rotigotine). Rotigotine hydrochloride was formulated as a 0.36 mg/ml injection (calculated as rotigotine) in normal saline.
(§4) The experimental animals were randomly divided into rotigotine oleate group (A), rotigotine palmitate group (B), rotigotine stearate group (C) and rotigotine hydrochloride group (D), with 3 rats in each group. The rats in Groups A, B, and C were intramuscularly injected with the corresponding drug (2 ml/kg), and the rats in group D were injected intravenously with the corresponding drug (2 ml/kg).
as §1, with “d, 24” for “d, 25”, “28” for “28 d, 30 d, 35 d, 39 d, 42”, “Each” for “Each blood”

[4] = Test Example 2: rotigotine hydrochloride intravenous injection in rats (group D); assay type: in vivo; conditions: male, SD, rat, plasma, rotigotine hydrochloride intravenous 2 ml/kg of 0.36 mg/ml injection, read-out: Blood concentration in rats
Protocol: Rotigotine hydrochloride: purity of 99.83%
as §2, §3, §4
Blood samples were taken from the eyelids of the rats in Group D before the administration (0 h) and at 3 min, 10 min, 0.25 h, 0.5 h, 1 h, 1.5 h, 2 h, 4 h, 6 h, 8 h, and 12 h after administration. Each blood sample was placed into heparinized EP tube, and was immediately centrifuged (3000 rpm) for 10 min. The plasma was separated and stored at −35° C. for testing.

[5] = first-pass effect of the liver; cited from earlier work

With `CCCCCCCCCCCCCCCCCCCC(=O)Oc1cccc2c1CCC(N(CCC)CCc1cccs1)C2` (stereo not shown) [Rotigotine arachidate] the “Maintenance of the effective blood concentration” value (shortened to “Maintenance”) [1] was “maintained only for a short period of time”.
With `CCCCCCCCCCCCCCCCCCCCCC(=O)Oc1cccc2c1CC[C@H](N(CCC)CCc1cccs1)C2` [Rotigotine behenate] the “Maintenance” value [1] was “more than two weeks”.
For `CCCCCCCC(=O)Oc1cccc2c1CC[C@H](N(CCC)CCc1cccs1)C2` [Rotigotine caprylate], the “Maintenance” value [2] was “maintained only for a short period of time”.
In the case of `CCCCCCCCCCCCCCCCCCCCCCCC(=O)Oc1cccc2c1CCC(N(CCC)CCc1cccs1)C2` (stereo not shown) [Rotigotine lignocerate], the “Maintenance” value [1] is reported as “cannot be maintained for more than two weeks”.
In the case of `CCCCCCCC/C=C\CCCCCCCC(=O)Oc1cccc2c1CCC(N(CCC)CCc1cccs1)C2` (stereo not shown) [Rotigotine oleate], the “Maintenance” value [3] is reported as “maintained only for a short period of time”.
In the case of `CCCCCCCCCCCCCCCC(=O)Oc1cccc2c1CCC(N(CCC)CCc1cccs1)C2` (stereo not shown) [Rotigotine palmitate], the “Maintenance” value [3] is reported as “no more than two weeks”.
In the case of `CCCCCCCCCCCCCCCCCC(=O)Oc1cccc2c1CCC(N(CCC)CCc1cccs1)C2` (stereo not shown) [Rotigotine stearate], the “Maintenance” value [3] is reported as “no more than two weeks”.
`CCCN(CCc1cccs1)[C@H]1CCc2c(O)cccc2C1` [Rotigotine] gave a concentration at 1 h ([4]; 0.72 mg/kg (calculated as rotigotine), 1 h) of 12.1 ng/mL, a concentration at 1.5 h ([4]; 0.72 mg/kg (calculated as rotigotine), 1.5 h) of 7.25 ng/mL and a concentration at 2 h ([4]; 0.72 mg/kg (calculated as rotigotine), 2 h) of 4.71 ng/mL. For the same compound, the concentration at 0 h ([4]; 0.72 mg/kg, 0 h (before administration)) was 0 ng/mL, the concentration at 0.05 h ([4]; 0.72 mg/kg, 0.05 h) was 82.5 ng/mL and the concentration at 0.17 h ([4]; 0.72 mg/kg, 0.17 h) was 43.8 ng/mL. For the same compound, the concentration at 0.25 h ([4]; 0.72 mg/kg, 0.25 h) was 45.4 ng/mL, the concentration at 0.5 h ([4]; 0.72 mg/kg, 0.5 h) was 29 ng/mL and the concentration at 4 h ([4]; 0.72 mg/kg, 4 h) was 0.99 ng/mL. The concentration at 8 h ([4]; 0.72 mg/kg, 8 h) was 0.16 ng/mL, the concentration at 12 h ([4]; 0.72 mg/kg, 12 h) was 0.04 ng/mL and the Oral bioavailability [5] was 1%-5%.
